Source: patent publication US11072626B2, “Small molecule inhibitors of Galectin-3” (BRISTOL-MYERS SQUIBB COMPANY, priority 2017, dated 2021)

target: His-tagged recombinant human Gal-3 (hGal-3) (Homo sapiens (Human), UniProt P17931); experiment: Gal-3 HTRF assay (hGal-3 / B-ASF); type: binding; conditions: 15 nM hGal-3, 15 nM B-ASF, table after Example 4, read-out: hGal3 IC50
Experimental: ASSAY BUFFER Composition: 25 mM HEPES, 100 mM NaCl, 0.005% Tween 20, 0.05% BSA prepared in sterile water (all reagents from Sigma)
Positive Control: 100% DMSO (1 μl)+His-tagged hGal-3 (20 μL)+B-ASF (20 μl)+Anti-His Terbium Antibody (5 μl)+Strep d2 Antibody (5 μl).
Negative Control: 100% DMSO (1 μl)+His-tagged hGal-3 (20μL)+Anti His Terbium Antibody (5 μl)+Strep d2 Aantibody (5 μl).
PROTOCOL: The Gal-3 assays were performed in 384 white Opti plates in three replicates at room temperature with gentle shaking at 250-300 rpm From the original stocks, […] working stock concentrations of His-tagged recombinant human Gal-3 (hGal-3) and that of B-ASF were prepared. From the working stock, 20 μl of hGal-3 (15 nM) and 20 μl B-ASF (15 nM) were added to the plates. In Negative Control, only hGal-3 was added. A concentration range of 50× working stocks were prepared for the compounds in 100% DMSO. Aliquots of 1 uL of the compounds were added to the wells and pre-incubated with 20 μl hGal-3 per well for 30 minutes Then 20 μl B-ASF were added and incubated for another 1 hour. To detect the signal, 5 μ(final conc. of 1.0 nM) terbium labelled Anti-His antibody was added and incubated for 30 min followed by adding 5 μ(final conc. of 20 nM) Streptavidin d2 and incubation for another 1 hour. The assay signal was detected using HTRF screen protocol (Excitation wavelength=340 nm, emission wavelength=615 nm/665 nm) on Envision 2104 Multilabel Reader. Data analysed using Toolset and Curve Master. Results are reported in the experimental section (IC50 in μM).

Sequence of His-tagged recombinant human Gal-3 (hGal-3) (P17931 whole entry): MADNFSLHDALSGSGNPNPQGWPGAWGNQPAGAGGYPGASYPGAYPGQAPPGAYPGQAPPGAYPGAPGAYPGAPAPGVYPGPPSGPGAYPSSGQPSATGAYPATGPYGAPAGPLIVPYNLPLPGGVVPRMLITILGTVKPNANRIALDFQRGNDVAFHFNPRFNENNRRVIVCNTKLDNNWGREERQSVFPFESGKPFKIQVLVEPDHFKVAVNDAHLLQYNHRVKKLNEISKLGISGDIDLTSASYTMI

Which IC50 does the source give for `O=C(O)CO[C@@H]1[C@@H](n2cc(-c3cc(F)c(F)c(F)c3)nn2)[C@@H](O)[C@@H](CO)O[C@@H]1Sc1ccc(Cl)c(Cl)c1` [compound 2, 2-(((2R,3R,4S,5R,6R)-2-((3,4-dichlorophenyl)thio)-5-hydroxy-6-(hydroxymethyl)-4-(4-(3,4,5-trifluorophenyl)-1H-1,2,3-triazol-1-yl)tetrahydro-2H-pyran-3-yl)oxy)acetic acid] here?
The IC50 was 46 nM.

same assay, conditions: 15 nM hGal-3, 15 nM B-ASF, table after Example 20, read-out: hGal3 IC50

How did the IC50 turn out when `O=C(CO[C@@H]1[C@@H](n2cc(-c3cc(F)c(F)c(F)c3)nn2)[C@@H](O)[C@@H](CO)O[C@@H]1Sc1ccc(Cl)c(Cl)c1)N1CC[C@H](O)C1` [Example 28] was run?
Its IC50 is 48 nM.

Which IC50 does the source give for `CC(=O)NC1CN(C(=O)CO[C@@H]2[C@@H](n3cc(-c4cc(F)c(F)c(F)c4)nn3)[C@@H](O)[C@@H](CO)O[C@@H]2Sc2ccc(Cl)c(Cl)c2)C1` [Example 30] here?
Its IC50 is 800 nM.

Which IC50 does the source give for `O=C(CO[C@@H]1[C@@H](n2cc(-c3cc(F)c(F)c(F)c3)nn2)[C@@H](O)[C@@H](CO)O[C@@H]1Sc1ccc(Cl)c(Cl)c1)N1CCC[C@H]1CO` [Example 29] here?
The IC50 was 72 nM.

For `O=C1CN(C(=O)CO[C@@H]2[C@@H](n3cc(-c4cc(F)c(F)c(F)c4)nn3)[C@@H](O)[C@@H](CO)O[C@@H]2Sc2ccc(Cl)c(Cl)c2)CCN1` [Example 26], which IC50 is on record?
Its IC50 is 86 nM.

`O=C(CO[C@@H]1[C@@H](n2cc(-c3cc(F)c(F)c(F)c3)nn2)[C@@H](O)[C@@H](CO)O[C@@H]1Sc1ccc(Cl)c(Cl)c1)N1CCC[C@H](O)C1` [Example 33, 2-(((2R,3R,4S,5R,6R)-2-((3,4-dichlorophenyl)thio)-5-hydroxy-6-(hydroxymethyl)-4-(4-(3,4,5-trifluorophenyl)-1H-1,2,3-triazol-1-yl)tetrahydro-2H-pyran-3-yl)oxy)-1-((S)-3-hydroxypiperidin-1-yl)ethan-1-one] was tested. Which IC50 did it give?
Its IC50 is 60 nM.

With `O=C(CO[C@@H]1[C@@H](n2cc(-c3cc(F)c(F)c(F)c3)nn2)[C@@H](O)[C@@H](CO)O[C@@H]1Sc1ccc(Cl)c(Cl)c1)N1CCCCC1` [Example 21] as the molecule, how does the IC50 read?
Its IC50 is 225 nM.

same assay, conditions: 15 nM hGal-3, 15 nM B-ASF, table after Example 46, read-out: hGal3 IC50

With `COc1ccc(-c2cn([C@H]3[C@@H](O)[C@@H](CO)O[C@H](Sc4ccc(Cl)c(Cl)c4)[C@@H]3OCC(=O)O)nn2)cc1` [Example 47] as the molecule, how does the IC50 read?
The IC50 was 1530 nM.

How did the IC50 turn out when `O=C(O)CO[C@@H]1[C@@H](n2cc(-c3ccc(F)c(F)c3)nn2)[C@@H](O)[C@@H](CO)O[C@@H]1Sc1ccc(Cl)c(Cl)c1` [Example 55] was run?
The IC50 was 70 nM.

With `O=C(O)CO[C@@H]1[C@@H](n2cc(-c3ccc(F)cn3)nn2)[C@@H](O)[C@@H](CO)O[C@@H]1Sc1ccc(Cl)c(Cl)c1` [Example 58] as the molecule, how does the IC50 read?
The IC50 was 840 nM.

How did the IC50 turn out when `Cc1cc(-c2cn([C@H]3[C@@H](O)[C@@H](CO)O[C@H](Sc4ccc(Cl)c(Cl)c4)[C@@H]3OCC(=O)O)nn2)ccc1F` [Example 54] was run?
The IC50 was 230 nM.

same assay, conditions: 15 nM hGal-3, 15 nM B-ASF, three replicates, room temperature, read-out: hGal3 IC50

With `O=C(O)/C=C\O[C@@H]1[C@@H](n2cc(-c3cc(F)c(F)c(F)c3)nn2)[C@@H](O)[C@@H](CO)O[C@@H]1Sc1ccc(Cl)c(Cl)c1` [Example 40 (cis-isomer), (Z)-3-(((2R,3R,4S,5R,6R)-2-((3,4-dichlorophenyl)thio)-5-hydroxy-6-(hydroxymethyl)-4-(4-(3,4,5-trifluorophenyl)-1H-1,2,3-triazol-1-yl)tetrahydro-2H-pyran-3-yl)oxy)acrylic acid] as the molecule, how does the IC50 read?
Its IC50 is 680 nM.

How did the IC50 turn out when `O=C(O)CO[C@@H]1[C@@H](n2cc(-c3cc(F)c(F)c(F)c3)nn2)[C@@H](O)[C@@H](CO)O[C@@H]1S(=O)(=O)c1ccc(Cl)c(Cl)c1` [Example 19, 2-(((2R,3R,4S,5R,6R)-2-((3,4-dichlorophenyl)sulfonyl)-5-hydroxy-6-(hydroxymethyl)-4-(4-(3,4,5-trifluorophenyl)-1H-1,2,3-triazol-1-yl)tetrahydro-2H-pyran-3-yl)oxy)acetic acid] was run?
Its IC50 is 60 nM.

For `CC(O[C@@H]1[C@@H](n2cc(-c3cc(F)c(F)c(F)c3)nn2)[C@@H](O)[C@@H](CO)O[C@@H]1Sc1ccc(Cl)c(Cl)c1)C(=O)O` (single isomer, unassigned) [Example 38 (isomer-2)], which IC50 is on record?
The IC50 was 40 nM.

Which IC50 does the source give for `O=C(O)CO[C@@H]1[C@@H](n2cc(-c3ccccc3)nn2)[C@@H](O)[C@@H](CO)O[C@@H]1Sc1ccc(Cl)c(Cl)c1` [Example 46, 2-(((2R,3R,4S,5R,6R)-2-((3,4-dichlorophenyl)thio)-5-hydroxy-6-(hydroxymethyl)-4-(4-phenyl-1H-1,2,3-triazol-1-yl)tetrahydro-2H-pyran-3-yl)oxy)acetic acid] here?
Its IC50 is 1360 nM.

With `CCO[C@@H]1[C@@H](n2cc(-c3cc(F)c(F)c(F)c3)nn2)[C@@H](O)[C@@H](CO)O[C@@H]1Sc1ccc(Cl)c(Cl)c1` [Example 4, (2R,3R,4S,5R,6R)-6-((3,4-dichlorophenyl)thio)-5-ethoxy-2-(hydroxymethyl)-4-(4-(3,4,5-trifluorophenyl)-1H-1,2,3-triazol-1-yl)tetrahydro-2H-pyran-3-ol] as the molecule, how does the IC50 read?
Its IC50 is 1050 nM.

With `CC(O[C@@H]1[C@@H](n2cc(-c3cc(F)c(F)c(F)c3)nn2)[C@@H](O)[C@@H](CO)O[C@@H]1S(=O)(=O)c1ccc(Cl)c(Cl)c1)C(=O)O` (single isomer, unassigned) [Example 39 (isomer-1)] as the molecule, how does the IC50 read?
Its IC50 is 360 nM.

`CO[C@@H]1[C@@H](n2cc(-c3cc(F)c(F)c(F)c3)nn2)[C@@H](O)[C@@H](CO)O[C@@H]1[S+]([O-])c1ccc(Cl)c(Cl)c1` (single isomer, unassigned) [Example 2 (isomer-1)] was tested. Which IC50 did it give?
Its IC50 is 29 nM.

For `OC[C@H]1O[C@@H](Sc2ccc(Cl)c(Cl)c2)[C@H](F)[C@@H](n2cc(-c3cc(F)c(F)c(F)c3)nn2)[C@H]1O` (single isomer, unassigned) [Example 62 (isomer-2)], which IC50 is on record?
The IC50 was 10000 nM.

Which IC50 does the source give for `OC[C@H]1O[C@H](Sc2ccc(Cl)c(Cl)c2)[C@H](F)[C@@H](n2cc(-c3cc(F)c(F)c(F)c3)nn2)[C@H]1O` (single isomer, unassigned) [Example 62 (isomer-1)] here?
The IC50 was 2200 nM.

For `O=C(CO[C@@H]1[C@@H](n2cc(-c3cc(F)c(F)c(F)c3)nn2)[C@@H](O)[C@@H](CO)O[C@@H]1Sc1ccc(Cl)c(Cl)c1)N1CCC(O)CC1` [Example 20, 2-(((2R,3R,4S,5R,6R)-2-((3,4-dichlorophenyl)thio)-5-hydroxy-6-(hydroxymethyl)-4-(4-(3,4,5-trifluorophenyl)-1H-1,2,3-triazol-1-yl)tetrahydro-2H-pyran-3-yl)oxy)-1-(4-hydroxypiperidin-1-yl)ethan-1-one], which IC50 is on record?
Its IC50 is 40 nM.

With `O=C(CO[C@@H]1[C@@H](n2cc(-c3cc(F)c(F)c(F)c3)nn2)[C@@H](O)[C@@H](CO)O[C@@H]1[S@@+]([O-])c1ccc(Cl)c(Cl)c1)N1CCC[C@H](O)C1` [Example 36, 2-(((2R,3R,4S,5R,6R)-2-((S)-(3,4-dichlorophenyl)sulfinyl)-5-hydroxy-6-(hydroxymethyl)-4-(4-(3,4,5-trifluorophenyl)-1H-1,2,3-triazol-1-yl)tetrahydro-2H-pyran-3-yl)oxy)-1-((S)-3-hydroxypiperidin-1-yl)ethan-1-one] as the molecule, how does the IC50 read?
Its IC50 is 70 nM.

With `CCO[C@@H]1[C@@H](n2cc(-c3cc(F)c(F)c(F)c3)nn2)[C@@H](O)[C@@H](CO)O[C@@H]1[S+]([O-])c1ccc(Cl)c(Cl)c1` (single isomer, unassigned) [Example 9 (isomer-2)] as the molecule, how does the IC50 read?
Its IC50 is 340 nM.

With `O=C(O)/C=C/O[C@@H]1[C@@H](n2cc(-c3cc(F)c(F)c(F)c3)nn2)[C@@H](O)[C@@H](CO)O[C@@H]1Sc1ccc(Cl)c(Cl)c1` [Example 40 (trans-isomer), (E)-3-(((2R,3R,4S,5R,6R)-2-((3,4-dichlorophenyl)thio)-5-hydroxy-6-(hydroxymethyl)-4-(4-(3,4,5-trifluorophenyl)-1H-1,2,3-triazol-1-yl)tetrahydro-2H-pyran-3-yl)oxy)acrylic acid] as the molecule, how does the IC50 read?
The IC50 was 60 nM.
